We go through 3 compounds from US20250313860A1, “EXPRESSION OF EXOGENOUS PROTEINS IN DONOR PLATELETS TREATED WITH LIPID NANOPARTICLES” (THE UNIVERSITY OF BRITISH COLUMBIA, priority 2022, published 2025).

One assay relates to human platelets. The assay is described as follows: Platelet responsiveness to agonists ADP and thrombin (CD62P flow cytometry). The settings on record: transfected and control untreated platelets, FIG. 3A. Type of assay: cell-based. The method, then: (§1) Platelets untreated or treated with CL4H6 POPC LNP were activated after 2 h with 0.1 U mL-1 thrombin from human plasma (MilliporeSigma Canada Ltd, Oakville, ON) or 10 μM Chrono-Par® ADP reagent (Chrono-Log, Havertown, PA) in Tyrode's-HEPES buffer pH 7.4 (134 mM NaCl, 2.9 mM KCl, 0.34 mM NaH2PO4, 10 mM HEPES, 5 mM D-glucose). After 4 h LNP treatment, platelets were collected for flow cytometry and the remaining sample was centrifuged at 250×g for 10 min, with the pellet and supernatant fractions collected for luciferase assay.
Platelet responsiveness to agonists ADP or thrombin was measured by flow cytometry staining using PE-conjugated mouse anti-human CD62P labeling, as described in the Materials and Methods.

The subject of assay [1] is platelets transfected with mRNA-LNP. The assay is described as follows: Intracellular and extracellular NanoLuc after agonist activation of transfected platelets. Type of assay: cell-based, human. Particulars: after agonist stimulation of transfected platelets; for intracellular NanoLuc level (cell pellet): FIG. 4D; for extracellular NanoLuc level (supernatant): FIG. 4E. The method, then:
as §1
Platelets were transfected with mRNA-LNP encoding NanoLuc, followed by activation with agonists ADP or thrombin. Intracellular and extracellular protein was separated by centrifugation, and enzymatic activity assays were used to measure exogenous protein levels in both fractions as described in the Materials and Methods.

The test system is the same in assay [2]. The assay is described as follows: Cycloheximide treatment of mRNA-LNP transfected platelets. The format is cell-based, human. From the text:
Platelets were transfected with mRNA encoding nanoluciferase (NanoLuc) encapsulated in LNP formulation using ALC0315 and DOPC immediately preceding treatment with cycloheximide, followed by enzymatic assays of nanoluciferase activity, and activation by flow cytometry using PE-conjugated mouse anti-human CD62P labeling, as described in the Materials and Methods.

On to thrombin, for which, in the assay on human platelets, the “increase of CD62P levels by agonist” value was “substantially”. Besides, in assay [1], the “intracellular NanoLuc level (cell pellet)” value was “decreased” and the “extracellular NanoLuc level (supernatant)” value is “decreased”.

`Nc1ncnc2c1ncn2[C@@H]1O[C@H](COP(=O)(O)OP(=O)(O)O)[C@@H](O)[C@H]1O` [ADP]: in the assay with human platelets, the “increase of CD62P levels by agonist” value is on record as “mildly”. In assay [1], the “intracellular NanoLuc level (cell pellet)” value is given as “unchanged” and the “extracellular NanoLuc level (supernatant)” value was “unchanged”.

Take `C[C@@H]1C[C@@H]([C@H](O)CC2CC(=O)NC(=O)C2)C(=O)[C@@H](C)C1` [cycloheximide]: the “exogenous protein synthesis in transfected platelets” value in assay [2] (LNP with ALC0315 and DOPC, FIG. 5A) was “inhibited”. Besides, the “mRNA-LNP uptake in transfected platelets” value in assay [2] (presence or absence of cycloheximide, FIG. 5B) is “no statistically significant effect”.
